{"source": "patent US7557222B2", "about": "“1-[(4-Ethynylphenyl)]-2-[(phenyl)]-pyrrolidine-1,2-dicarboxamide derivatives as inhibitors of coagulation factors Xa and VIIa for the treatment of thrombosis” (priority 2003, dated 2009)", "note": "pIC50: −log10 of the molar value.", "data": [{"target": "FXa (Homo sapiens, UniProt P00742)", "sequence (P00742 235-488 limits assumed)": "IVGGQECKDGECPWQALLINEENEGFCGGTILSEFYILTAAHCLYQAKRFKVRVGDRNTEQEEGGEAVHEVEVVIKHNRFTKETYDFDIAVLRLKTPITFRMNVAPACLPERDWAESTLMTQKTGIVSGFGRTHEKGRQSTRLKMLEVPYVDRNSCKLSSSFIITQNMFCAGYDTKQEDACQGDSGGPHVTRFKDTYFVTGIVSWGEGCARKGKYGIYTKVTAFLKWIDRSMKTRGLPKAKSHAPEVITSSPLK", "sequence (P00742 41-179 partner limits assumed)": "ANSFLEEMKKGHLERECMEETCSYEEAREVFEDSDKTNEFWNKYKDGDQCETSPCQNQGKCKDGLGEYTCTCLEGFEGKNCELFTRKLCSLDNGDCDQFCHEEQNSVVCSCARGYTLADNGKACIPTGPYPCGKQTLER", "assay": "Factor Xa inhibition (FXa-IC50)", "format": "biochemical", "settings": "not given", "values": [{"smiles": "C#Cc1ccc(NC(=O)N2C[C@H](OC)C[C@@H]2C(=O)Nc2ccc(N3CCOCC3=O)cc2)cc1", "note": "[Compound A2, 1-[(4-ethynylphenyl)]-2-{[4-(3-oxomorpholin-4-yl)phenyl]}-(2R,4R)-4-methoxypyrrolidine-1,2-dicarboxamide]", "pIC50": 8.51}, {"smiles": "C#Cc1ccc(NC(=O)N2C[C@H](OC)C[C@@H]2C(=O)Nc2ccc(-n3ccccc3=O)cc2)cc1", "note": "[Compound A1, 1-[(4-ethynylphenyl)]-2-{[4-(2-oxo-2H-pyridin-1-yl)phenyl]}-(2R,4R)-4-methoxypyrrolidine-1,2-dicarboxamide]", "pIC50": 8.89}]}, {"target": "FXa (Homo sapiens, UniProt P00742)", "assay": "Factor Xa inhibition (FXa-IC50)", "format": "biochemical", "settings": "read-out: FXa-IC50", "values": [{"smiles": "C#Cc1ccc(NC(=O)N2CC(OCC)CC2C(=O)Nc2ccc(-n3ccccc3=O)c(F)c2)cc1", "note": "[Compound A4-2, 1-[(4-ethynylphenyl)]-2-{[3-fluoro-4-(2-oxo-2H-pyridin-1-yl)phenyl]}-(2R,4R)-4-ethoxypyrrolidine-1,2-dicarboxamide]", "pIC50": 8.72}, {"smiles": "C#Cc1ccc(NC(=O)N2CC(OC)CC2C(=O)Nc2ccc(N3CC(O)CC3C(=O)OC)cc2)cc1", "note": "[Compound A4-8, 1-[(4-ethynylphenyl)]-2-{[4-(2-methoxycarbonyl-4-hydroxypyrrolidin-1-yl)phenyl]}-(2R,4R)-4-methoxypyrrolidine-1,2-dicarboxamide]", "pIC50": 5.96}, {"smiles": "C#Cc1ccc(NC(=O)N2CC(OCC(O)CO)CC2C(=O)Nc2ccc(N3CCOCC3=O)cc2)cc1", "note": "[Compound A4-7, 1-[(4-ethynylphenyl)]-2-{[4-(3-oxomorpholin-4-yl)phenyl]}-(2R,4R)-4-(2,3-dihydroxypropoxy)pyrrolidine-1,2-dicarboxamide]", "pIC50": 8.51}, {"smiles": "C#CCO[C@@H]1C[C@H](C(=O)Nc2ccc(N3CCOCC3=O)cc2)N(C(=O)Nc2ccc(C#C)cc2)C1", "note": "[Compound A4-6, 1-[(4-ethynylphenyl)]-2-{[4-(3-oxomorpholin-4-yl)phenyl]}-(2R,4R)-4-propargyloxypyrrolidine-1,2-dicarboxamide]", "pIC50": 8.89}, {"smiles": "C#Cc1ccc(NC(=O)N2C[C@H](OCC(=O)OC)C[C@@H]2C(=O)Nc2ccc(N3CCOCC3=O)cc2)cc1", "note": "[Compound A4-10, 1-[(4-ethynylphenyl)]-2-{[4-(3-oxomorpholin-4-yl)phenyl]}-(2R,4R)-4-(methoxycarbonylmethoxy)pyrrolidine-1,2-dicarboxamide]", "pIC50": 8.38}, {"smiles": "C#Cc1ccc(NC(=O)N2CC(OCC)CC2C(=O)Nc2ccc(N3CCCCC3=O)cc2)cc1", "note": "[Compound A4-1, 1-[(4-ethynylphenyl)]-2-{[4-(2-oxopiperidin-1-yl)phenyl]}-(2R,4R)-4-ethoxypyrrolidine-1,2-dicarboxamide]", "pIC50": 8.52}, {"smiles": "C#Cc1ccc(NC(=O)N2C[C@H](OCC(=O)O)C[C@@H]2C(=O)Nc2ccc(N3CCOCC3=O)cc2)cc1", "note": "[Compound A4-11, 1-[(4-ethynylphenyl)]-2-{[4-(3-oxomorpholin-4-yl)phenyl]}-(2R,4R)-4-(carboxymethoxy)pyrrolidine-1,2-dicarboxamide]", "pIC50": 8.32}, {"smiles": "C#Cc1ccc(NC(=O)N2C[C@H](OCCOC)C[C@@H]2C(=O)Nc2ccc(N3CCOCC3=O)cc2)cc1", "note": "[Compound A4-9, 1-[(4-ethynylphenyl)]-2-{[4-(3-oxomorpholin-4-yl)phenyl]}-(2R,4R)-4-(methoxyethoxy)pyrrolidine-1,2-dicarboxamide]", "pIC50": 8.48}, {"smiles": "C#Cc1ccc(NC(=O)N2CC(OC)CC2C(=O)Nc2ccc(-n3ccccc3=O)c(OC)c2)cc1", "note": "[Compound A4-4, 1-[(4-ethynylphenyl)]-2-{[3-methoxy-4-(2-oxo-2H-pyridin-1-yl)phenyl]}-(2R,4R)-4-methoxypyrrolidine-1,2-dicarboxamide]", "pIC50": 8.55}, {"smiles": "C#Cc1ccc(NC(=O)N2C[C@H](OC)C[C@@H]2C(=O)Nc2ccc(-n3nc(C)ccc3=O)cc2)cc1", "note": "[Compound A4-12, 1-[(4-ethynylphenyl)]-2-{[4-(6-methyl-3-oxo-2H-pyridazin-2-yl)phenyl]}-(2R,4R)-4-methoxypyrrolidine-1,2-dicarboxamide]", "pIC50": 5.68}, {"smiles": "C#Cc1ccc(NC(=O)N2CC(O)CC2C(=O)Nc2ccc3c(c2)CCN3C(C)=O)cc1", "note": "[Compound A4-3, 1-[(4-ethynylphenyl)]-2-{[1-acetyl-2,3-dihydro-1H-indol-5-yl]}-(2R,4R)-4-hydroxypyrrolidine-1,2-dicarboxamide]", "pIC50": 5.59}, {"smiles": "C#Cc1ccc(NC(=O)N2CC(OCC=C)CC2C(=O)Nc2ccc(N3CCOCC3=O)cc2)cc1", "note": "[Compound A4-5, 1-[(4-ethynylphenyl)]-2-{[4-(3-oxomorpholin-4-yl)phenyl]}-(2R,4R)-4-allyloxypyrrolidine-1,2-dicarboxamide]", "pIC50": 8.51}]}, {"target": "T1, TF/FVIIa (Homo sapiens, UniProt P08709)", "T1 construct": "Coagulation factor VIIa initiates the extrinsic part of the coagulation cascade", "T1 sequence (P08709 61-212)": "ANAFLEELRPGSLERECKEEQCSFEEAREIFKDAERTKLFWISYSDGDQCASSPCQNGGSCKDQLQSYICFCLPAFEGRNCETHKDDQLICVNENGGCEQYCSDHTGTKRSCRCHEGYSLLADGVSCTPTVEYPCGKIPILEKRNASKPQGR", "T1 sequence (P08709 213-466)": "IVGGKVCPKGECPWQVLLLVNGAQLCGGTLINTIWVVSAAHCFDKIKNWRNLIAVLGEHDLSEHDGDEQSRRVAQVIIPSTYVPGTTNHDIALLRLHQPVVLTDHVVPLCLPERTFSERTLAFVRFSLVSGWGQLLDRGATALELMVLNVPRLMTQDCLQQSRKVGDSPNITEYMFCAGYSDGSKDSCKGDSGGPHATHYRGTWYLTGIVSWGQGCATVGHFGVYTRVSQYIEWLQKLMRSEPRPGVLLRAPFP", "T1 sequence (P13726 33-295, further chain)": "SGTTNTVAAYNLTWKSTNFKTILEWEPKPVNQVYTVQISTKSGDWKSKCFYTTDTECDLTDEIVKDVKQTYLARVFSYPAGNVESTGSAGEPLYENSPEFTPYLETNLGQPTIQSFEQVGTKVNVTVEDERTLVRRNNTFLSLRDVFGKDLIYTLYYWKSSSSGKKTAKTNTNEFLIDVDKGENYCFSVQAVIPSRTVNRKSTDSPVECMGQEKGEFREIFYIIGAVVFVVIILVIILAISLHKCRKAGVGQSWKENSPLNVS", "assay": "TF/FVIIa inhibition (TF/FVIIa-IC50)", "format": "biochemical", "settings": "not given", "values": [{"smiles": "C#Cc1ccc(NC(=O)N2C[C@H](OC)C[C@@H]2C(=O)Nc2ccc(N3CCOCC3=O)cc2)cc1", "note": "[Compound A2, 1-[(4-ethynylphenyl)]-2-{[4-(3-oxomorpholin-4-yl)phenyl]}-(2R,4R)-4-methoxypyrrolidine-1,2-dicarboxamide]", "pIC50": 8.49}, {"smiles": "C#Cc1ccc(NC(=O)N2C[C@H](OC)C[C@@H]2C(=O)Nc2ccc(-n3ccccc3=O)cc2)cc1", "note": "[Compound A1, 1-[(4-ethynylphenyl)]-2-{[4-(2-oxo-2H-pyridin-1-yl)phenyl]}-(2R,4R)-4-methoxypyrrolidine-1,2-dicarboxamide]", "pIC50": 8.72}]}]}
